Test results reported in ChEMBL document CHEMBL3865833, “Functional induction of P-glycoprotein efflux pump by phenyl benzenesulfonamides: Synthesis and biological evaluation of T0901317 analogs” (Eur J Med Chem, 2016).
The source made the active and inactive calls. No cut-off for these calls is given here.

What was measured:
[1] = test system: LS180; assay: (§1) Activation of PXR/LXR in human LS180 cells assessed as induction of P-gp measured as intracellular accumulation of Rhodamine-123 at 5 uM preincubated for 48 hrs followed by 40 mins incubation with HANKS buffer and subsequent addition of Rhodamine-123 measured after 90 mins by fluorescence analysis relative to control; format: cell-based
[2] = Cytotoxicity against human LS180 cells assessed as effect on cell viability at 50 uM measured after 24 hrs by MTT assay relative to control; format: toxicity, cell-based; conditions: read-out: Activity
[3] = Therapeutic index, ratio of effective concentration for cytotoxicity in human LS180 cells to effective concentration for activation of PXR/LXR in human LS180 cells assessed as induction of P-gp; format: cell-based; conditions: read-out: TI
[4] = Cytotoxicity against human SH-SY5Y cells assessed as effect on cell viability at 50 uM measured after 24 hrs by MTT assay relative to control; format: toxicity, cell-based; conditions: read-out: Activity
[5] = Therapeutic index, ratio of effective concentration for cytotoxicity in human SH-SY5Y cells to effective concentration for activation of PXR/LXR in human LS180 cells assessed as induction of P-gp; format: cell-based; conditions: read-out: TI
[6] = test system: LS180; assay: as §1, with “by measuring decrease in” for “measured as”, “0.3” for “5”, “assay” for “analysis relative to control”; format: cell-based
[7] = test system: LS180; assay: Activation of PXR/LXR in human LS180 cells assessed as induction of P-gp at 5 uM measured after 24 hrs by Western blot analysis; format: cell-based
[8] = Cytotoxicity against human SH-SY5Y cells assessed as effect on cell viability measured after 24 hrs by MTT assay; format: toxicity, cell-based
[9] = Cytotoxicity against human LS180 cells assessed as effect on cell viability measured after 24 hrs by MTT assay; format: toxicity, cell-based

Row | SMILES | Activity [1] | viability at 24 h, 50 µM [2] | selectivity ratio [3] | viability at 24 h, 50 µM [4] | selectivity ratio [5] | Activity [6] | Activity [7] | IC50 at 24 h [8] | IC50 at 24 h [9]
1 | CC(=O)c1ccc(N(Cc2cn(-c3ccc(OC(F)(F)F)cc3)nn2)S(=O)(=O)c2ccccc2)cc1 | 83.4% | 67.6% | 10 | 64.4% | 10 | – | – | – | –
2 | Cc1ccc(-n2cc(CN(c3ccc(C(O)(C(F)(F)F)C(F)(F)F)cc3)S(=O)(=O)c3ccccc3)nn2)cc1 | 74.6% | 71.9% | 10 | 48.9% | – | – | – | – | –
3 | O=S(=O)(c1ccccc1)N(Cc1cn(-c2ccc(F)cc2)nn1)c1ccc(C(O)(C(F)(F)F)C(F)(F)F)cc1 | 70.5% | 51.5% | 10 | 36.4% | 10 | – | – | – | –
4 | COC(=O)c1ccc(-n2cc(CN(c3ccc(C(C)=O)cc3)S(=O)(=O)c3ccccc3)nn2)cc1 | 77% | 80.6% | 10 | 71.8% | 10 | – | – | – | –
5 | CC(=O)c1ccc(N(Cc2cn(-c3ccc(Cl)cc3)nn2)S(=O)(=O)c2ccccc2)cc1 | 68.8% | 88.1% | 10 | 74.4% | – | – | – | – | –
6 | O=S(=O)(c1ccccc1)N(Cc1cn(-c2ccc(OC(F)(F)F)cc2)nn1)c1ccc(C(O)(C(F)(F)F)C(F)(F)F)cc1 | 67.8% | 68.7% | 10 | 43.5% | 10 | – | – | – | –
7 | Cc1ccc(C)c(-n2cc(CN(c3ccc(C(O)(C(F)(F)F)C(F)(F)F)cc3)S(=O)(=O)c3ccccc3)nn2)c1 | 69% | 76.9% | 10 | 93% | 10 | – | – | – | –
8 | CC(=O)c1ccc(N(Cc2cn(-c3cccc([N+](=O)[O-])c3)nn2)S(=O)(=O)c2ccccc2)cc1 | 71.6% | 112% | 10 | 74.2% | 10 | – | – | – | –
9 | CC(=O)c1ccc(N(Cc2cn(-c3ccccc3C)nn2)S(=O)(=O)c2ccccc2)cc1 | 65.1% | 64.4% | 10 | 92.9% | 10 | – | – | – | –
10 | CC(=O)c1ccc(N(Cc2cn(-c3ccccc3C#N)nn2)S(=O)(=O)c2ccccc2)cc1 | 86.2% | 91.8% | 10 | 99% | 10 | – | – | – | –
11 | O=[N+]([O-])c1ccc(-n2cc(CN(c3ccc(C(O)(C(F)(F)F)C(F)(F)F)cc3)S(=O)(=O)c3ccccc3)nn2)cc1 | 80.6% | 66.2% | 10 | 39.6% | 10 | – | – | – | –
12 | CC(=O)c1ccc(N(Cc2cn(-c3ccc([N+](=O)[O-])cc3)nn2)S(=O)(=O)c2ccccc2)cc1 | 55.6% | 74.7% | 10 | 105% | 10 | – | – | – | –
13 | CC(=O)c1ccc(N(Cc2cn(-c3ccccc3)nn2)S(=O)(=O)c2ccccc2)cc1 | 53.4% | 86.3% | – | 114% | 10 | Active | – | – | –
14 | O=S(=O)(c1ccccc1)N(Cc1cn(-c2ccc(C(F)(F)F)cc2)nn1)c1ccc(C(O)(C(F)(F)F)C(F)(F)F)cc1 | 70.2% | 62.8% | 10 | 49.8% | 10 | – | – | – | –
15 | CC(=O)c1ccc(N(CC(F)(F)F)S(=O)(=O)c2ccccc2)cc1 | 63.5% | 88.3% | 10 | 81.3% | – | – | – | – | –
16 | CC(=O)c1ccc(N(Cc2ccccc2)S(=O)(=O)c2ccccc2)cc1 | 64.5% | 89.5% | 10 | 112% | – | – | – | – | –
17 | CC(=O)c1ccc(N(Cc2cn(-c3ccc(C(C)=O)cc3)nn2)S(=O)(=O)c2ccccc2)cc1 | 66.2% | 87.3% | 10 | 97.3% | 10 | – | – | – | –
18 | CC(=O)c1ccc(N(Cc2cn(-c3ccccc3F)nn2)S(=O)(=O)c2ccccc2)cc1 | 55.7% | 83.8% | – | 93.6% | 10 | – | – | – | –
19 | CC(=O)c1ccc(N(Cc2cn(-c3ccc(F)cc3)nn2)S(=O)(=O)c2ccccc2)cc1 | 55.9% | 60% | – | 90.4% | 10 | – | – | – | –

Row | SMILES | Activity [1] | viability at 24 h, 50 µM [2] | selectivity ratio [3] | viability at 24 h, 50 µM [4] | selectivity ratio [5] | Activity [6] | Activity [7] | IC50 at 24 h [8] | IC50 at 24 h [9]
20 | Cc1ccc(-n2cc(CN(c3ccc(C(O)(C(F)(F)F)C(F)(F)F)cc3)S(=O)(=O)c3ccccc3)nn2)cc1C | 68.7% | 80% | 10 | 68.7% | 10 | – | – | – | –
21 | CC(=O)c1ccc(N(Cc2cn(-c3ccccc3C(F)(F)F)nn2)S(=O)(=O)c2ccccc2)cc1 | 48.5% | 112% | 10 | 83.9% | 10 | – | Active | – | –
22 | O=S(=O)(c1ccccc1)N(Cc1cn(-c2ccccc2F)nn1)c1ccc(C(O)(C(F)(F)F)C(F)(F)F)cc1 | 61.8% | 65.1% | 10 | 129% | 10 | Active | – | – | –
23 | CC(=O)c1ccc(N(Cc2cn(-c3ccc(C(O)(C(F)(F)F)C(F)(F)F)cc3)nn2)S(=O)(=O)c2ccccc2)cc1 | 87.4% | 103% | – | 123% | – | – | – | – | –
24 | O=S(=O)(c1ccccc1)N(Cc1cn(-c2ccc(F)cc2F)nn1)c1ccc(C(O)(C(F)(F)F)C(F)(F)F)cc1 | 66.3% | 93.6% | – | 86.5% | 10 | – | – | – | –
25 | O=S(=O)(c1ccccc1)N(Cc1cn(-c2ccccc2)nn1)c1ccc(C(O)(C(F)(F)F)C(F)(F)F)cc1 | 87.9% | 46.4% | 10 | 39.5% | 10 | – | – | – | –
26 | CC(=O)c1ccc(N(Cc2cn(-c3c(C)cccc3C)nn2)S(=O)(=O)c2ccccc2)cc1 | 58.4% | 60.6% | 10 | 80.4% | 10 | – | – | – | –
27 | COc1ccc(-n2cc(CN(c3ccc(C(O)(C(F)(F)F)C(F)(F)F)cc3)S(=O)(=O)c3ccccc3)nn2)cc1 | 81.4% | 84.9% | 10 | 59.2% | 10 | – | – | – | –
28 | O=S(=O)(c1ccccc1)N(CC(F)(F)F)c1ccc(C(O)(C(F)(F)F)C(F)(F)F)cc1 [T091317] | 64.2% | 73.3% | 10 | 94.8% | 10 | Active | Active | > 50 µM | > 50 µM
29 | C#CCN(c1ccc(C(O)(C(F)(F)F)C(F)(F)F)cc1)S(=O)(=O)c1ccccc1 | 60.8% | 89.5% | 10 | 112% | 10 | – | – | – | –
30 | O=S(=O)(c1ccccc1)N(Cc1cn(-c2cccc(F)c2)nn1)c1ccc(C(O)(C(F)(F)F)C(F)(F)F)cc1 | 90.3% | 56% | 10 | 29.8% | 10 | – | – | – | –
31 | CCOC(=O)c1ccc(-n2cc(CN(c3ccc(C(O)(C(F)(F)F)C(F)(F)F)cc3)S(=O)(=O)c3ccccc3)nn2)cc1 | 91.3% | 76.5% | 10 | 73.8% | 10 | – | – | – | –
32 | COc1ccc(-n2cc(CN(c3ccc(C(C)=O)cc3)S(=O)(=O)c3ccccc3)nn2)cc1 | 86.3% | 93.3% | 10 | 88.5% | 10 | – | – | – | –
33 | C#CCOC(c1ccc(N(CC#C)S(=O)(=O)c2ccccc2)cc1)(C(F)(F)F)C(F)(F)F | 79.7% | 78.7% | 10 | 88.7% | 10 | – | – | – | –
34 | CC(=O)c1ccc(-n2cc(CN(c3ccc(C(O)(C(F)(F)F)C(F)(F)F)cc3)S(=O)(=O)c3ccccc3)nn2)cc1 | 81.6% | 70.7% | 10 | 42.2% | 10 | – | – | – | –
35 | CC(=O)c1ccc(N(Cc2cn(-c3cccc(C(C)=O)c3)nn2)S(=O)(=O)c2ccccc2)cc1 | 71% | 84.7% | 10 | 78.7% | 10 | – | – | – | –
36 | CC(=O)c1ccc(N(Cc2cn(-c3ccc(C)cc3)nn2)S(=O)(=O)c2ccccc2)cc1 | 58.6% | 84.1% | 10 | 85.8% | 10 | – | – | – | –
37 | CC(=O)c1ccc(N(Cc2cn(-c3ccc(O)c([N+](=O)[O-])c3)nn2)S(=O)(=O)c2ccccc2)cc1 | 74% | 96.1% | 10 | 71.3% | 10 | – | – | – | –
